The source of these data is PMC7663272, “Discovery of Tricyclic Pyranochromenone as Novel Bruton’s Tyrosine Kinase Inhibitors with In Vivo Antirheumatic Activity” (International Journal of Molecular Sciences, 2020).

One assay concerns the target T1, BTK-wt (Homo sapiens, UniProt Q06187).
T1 construct: purchased Reaction Biology Corporation
Put plainly: HotSpot kinase enzymatic assay, BTK-wt. The class given is biochemical. As to the method:
Kinase enzymatic assays for BTK, BMX, TXK, TEC, ITK, EGFR, ERBB2, ERBB4, and JAK3 were performed at Reaction Biology Corporation (www.reactionbiology.com, Malvern, PA, USA) using the HotSpot assay platform. Briefly, specific kinase/substrate pairs and the required cofactors were prepared in a reaction buffer comprising 20 mM HEPES (pH 7.5), 10 mM MgCl2, 1 mM EGTA, 0.02% Brij35, 0.02 mg/mL BSA, 0.1 mM Na3VO4, 2 mM DTT, and 1% DMSO. The compounds were added to the reaction mixture and allowed to incubate. Approximately 20 min later, a mixture of ATP (Sigma-Aldrich, St. Louis, MO, USA) and ^33P ATP (PerkinElmer, Waltham, MA, USA) was added to the reaction mixture at a final concentration of 10 μM. The reactions were performed at room temperature for 120 min; subsequently, the reactions were spotted onto P81 ion exchange filter papers (Whatman Inc., Maidstone, UK). […] GraphPad Prism software was used to obtain the IC50 values and perform curve fitting.

The target of the next assay is T2, TXK (Homo sapiens, UniProt P42681).
T2 construct: purchased Reaction Biology Corporation
T2 sequence (P42681 1-527): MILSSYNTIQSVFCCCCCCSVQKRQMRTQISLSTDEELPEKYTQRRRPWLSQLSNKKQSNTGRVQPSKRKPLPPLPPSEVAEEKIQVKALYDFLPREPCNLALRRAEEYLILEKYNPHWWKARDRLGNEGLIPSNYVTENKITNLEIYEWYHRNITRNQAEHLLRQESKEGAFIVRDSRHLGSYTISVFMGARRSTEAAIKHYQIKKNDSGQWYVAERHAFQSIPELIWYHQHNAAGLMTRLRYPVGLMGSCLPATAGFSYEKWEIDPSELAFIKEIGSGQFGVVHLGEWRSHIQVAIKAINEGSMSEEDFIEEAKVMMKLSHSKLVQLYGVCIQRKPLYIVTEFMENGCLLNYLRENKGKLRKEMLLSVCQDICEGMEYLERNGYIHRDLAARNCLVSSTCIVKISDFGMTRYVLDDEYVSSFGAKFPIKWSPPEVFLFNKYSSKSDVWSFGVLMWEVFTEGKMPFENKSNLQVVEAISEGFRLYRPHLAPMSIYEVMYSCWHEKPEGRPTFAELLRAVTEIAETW
Nature of the assay: HotSpot kinase enzymatic assay, TXK. Format: biochemical. As to the method:
(§1) Therefore, efforts have focused on developing new compounds with good selectivity profiles. […] Compound 8 was selective against BTK. The biochemical activities of compound 8 differed among TEC family kinases. […] The inhibitory potential of compound 8 differed between members of the EGFR family. […] The inhibitory activity of compound 8 against JAK3 was also low.
(§2) Kinase enzymatic assays for BTK, BMX, TXK, TEC, ITK, EGFR, ERBB2, ERBB4, and JAK3 were performed at Reaction Biology Corporation (www.reactionbiology.com, Malvern, PA, USA) using the HotSpot assay platform. Briefly, specific kinase/substrate pairs and the required cofactors were prepared in a reaction buffer comprising 20 mM HEPES (pH 7.5), 10 mM MgCl2, 1 mM EGTA, 0.02% Brij35, 0.02 mg/mL BSA, 0.1 mM Na3VO4, 2 mM DTT, and 1% DMSO. The compounds were added to the reaction mixture and allowed to incubate. Approximately 20 min later, a mixture of ATP (Sigma-Aldrich, St. Louis, MO, USA) and ^33P ATP (PerkinElmer, Waltham, MA, USA) was added to the reaction mixture at a final concentration of 10 μM. The reactions were performed at room temperature for 120 min; subsequently, the reactions were spotted onto P81 ion exchange filter papers (Whatman Inc., Maidstone, UK). Any unbound phosphate was removed by thoroughly washing the filter papers with 0.75% phosphoric acid. […]

For another assay, the target named is T3, ERBB2 (Homo sapiens, UniProt P04626).
T3 construct: purchased Reaction Biology Corporation
T3 sequence (P04626 23-1255): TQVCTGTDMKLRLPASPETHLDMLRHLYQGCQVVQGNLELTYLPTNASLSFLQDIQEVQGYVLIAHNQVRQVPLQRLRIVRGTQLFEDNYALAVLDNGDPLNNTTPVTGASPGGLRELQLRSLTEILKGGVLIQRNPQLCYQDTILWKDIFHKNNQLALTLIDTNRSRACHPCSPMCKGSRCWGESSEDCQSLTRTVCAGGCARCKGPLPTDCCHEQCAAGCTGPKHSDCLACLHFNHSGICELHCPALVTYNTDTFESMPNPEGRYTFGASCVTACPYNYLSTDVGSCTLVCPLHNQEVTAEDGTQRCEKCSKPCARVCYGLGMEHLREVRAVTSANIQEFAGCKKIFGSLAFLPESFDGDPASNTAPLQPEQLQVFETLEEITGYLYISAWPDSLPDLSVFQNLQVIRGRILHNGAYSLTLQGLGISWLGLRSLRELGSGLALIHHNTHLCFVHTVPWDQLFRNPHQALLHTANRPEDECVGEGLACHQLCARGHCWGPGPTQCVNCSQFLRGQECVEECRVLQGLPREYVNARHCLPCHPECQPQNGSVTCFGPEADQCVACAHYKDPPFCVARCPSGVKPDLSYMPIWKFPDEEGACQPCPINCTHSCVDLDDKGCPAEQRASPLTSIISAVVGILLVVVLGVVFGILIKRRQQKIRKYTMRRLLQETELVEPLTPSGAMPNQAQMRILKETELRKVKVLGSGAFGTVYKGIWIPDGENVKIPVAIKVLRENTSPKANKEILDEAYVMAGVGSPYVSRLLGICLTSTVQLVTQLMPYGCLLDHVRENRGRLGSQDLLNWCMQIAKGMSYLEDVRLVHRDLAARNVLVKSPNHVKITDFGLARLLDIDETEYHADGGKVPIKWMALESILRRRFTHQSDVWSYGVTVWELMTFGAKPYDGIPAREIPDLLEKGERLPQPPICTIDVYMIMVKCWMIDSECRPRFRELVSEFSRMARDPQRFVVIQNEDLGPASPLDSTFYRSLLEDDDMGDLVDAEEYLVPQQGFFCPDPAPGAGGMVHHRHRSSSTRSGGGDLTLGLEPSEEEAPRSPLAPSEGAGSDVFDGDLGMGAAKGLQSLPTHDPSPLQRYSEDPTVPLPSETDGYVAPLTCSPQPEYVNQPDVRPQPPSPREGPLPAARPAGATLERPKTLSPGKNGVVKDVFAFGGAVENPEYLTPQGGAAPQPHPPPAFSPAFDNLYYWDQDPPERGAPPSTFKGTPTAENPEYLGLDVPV
Put plainly: HotSpot kinase enzymatic assay, ERBB2. Format: biochemical. The note with it: mean of two experiments. As to the method: as §1, §2

The test system of assay [1] is IL-6 production in LPS-stimulated THP-1 cells. Nature of the assay: LPS-induced IL-6 release in THP-1 cells (ELISA). Format: cell-based, human. The text has this:
BTK plays a critical role in high-affinity IgE receptor (FcεRI) and B cell receptor (BCR) signaling, resulting in the release of proinflammatory cytokines. Therefore, BTK inhibitor treatment can reduce the production of both lymphoid and myeloid cytokines. […] We examined the cellular effects of compound 8 on the production of cytokines IL-6 and TNF-α in LPS-stimulated THP-1 cells. Following treatment with LPS alone or LPS and compound 8, the levels of cytokines secreted by THP-1 cells were assessed (Figure 5). LPS increased the output of proinflammatory cytokines.
THP-1 cells were obtained from the American Type Culture Collection (ATCC, Manassas, VA, USA). The cells were cultured in RPMI-1640 supplemented with 10% FBS, 1% P/S, and 0.05 mM 2-mercaptoethanol and maintained at 37 °C and 5% CO2 in a humidified incubator. Cytokine secretion (hIL-6 and TNF-α) in the culture supernatants of the THP-1 cells was measured using a human cytokine ELISA kit (Abcam). Differentiated THP-1 cells were treated with agents and LPS for 24 h, after which the cell culture media was centrifuged at 2000× g for 10 min to remove debris. Briefly, each sample (50 μL) or standard was mixed with the appropriate detection antibody and incubated for 1 h at room temperature on a plate shaker. […] Subsequently, 100 μL of stop solution was added to each well, and the optical density (OD) was measured at 450 nm. […]
(ELISA stands for enzyme-linked immunosorbent assay.)

Where two headings read alike, the source gives them in different places.

T1 sequence (Q06187 whole entry): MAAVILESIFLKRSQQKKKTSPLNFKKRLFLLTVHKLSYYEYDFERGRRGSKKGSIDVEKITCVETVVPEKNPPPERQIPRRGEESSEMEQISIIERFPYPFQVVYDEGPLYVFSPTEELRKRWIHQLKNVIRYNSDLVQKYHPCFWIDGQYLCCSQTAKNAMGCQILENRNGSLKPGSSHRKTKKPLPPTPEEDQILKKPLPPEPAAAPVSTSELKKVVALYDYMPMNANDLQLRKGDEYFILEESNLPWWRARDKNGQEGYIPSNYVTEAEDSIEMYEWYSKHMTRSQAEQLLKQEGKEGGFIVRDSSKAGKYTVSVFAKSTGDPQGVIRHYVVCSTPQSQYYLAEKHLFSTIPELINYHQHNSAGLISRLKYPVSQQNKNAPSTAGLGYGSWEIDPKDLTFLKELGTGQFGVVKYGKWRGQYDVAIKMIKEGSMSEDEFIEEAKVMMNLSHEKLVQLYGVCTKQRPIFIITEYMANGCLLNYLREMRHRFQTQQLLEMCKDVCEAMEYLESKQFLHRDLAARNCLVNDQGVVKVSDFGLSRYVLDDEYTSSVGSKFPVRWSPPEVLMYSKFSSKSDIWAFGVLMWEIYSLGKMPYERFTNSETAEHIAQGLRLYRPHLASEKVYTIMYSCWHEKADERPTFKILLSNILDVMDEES

On to `C=CC(=O)O[C@H]1Cc2cc3ccc(=O)oc3cc2OC1(C)C` [Compound 8, (7S)-(+)-Acrylic acid, 8,8-dimethyl-2-oxo-6,7-dihydro-2H,8H-pyrano [3,2-g]chromen-7-yl ester], for which the inhibition (in general, the change of the read-out against control, counted positive when it falls) at 10 µM on BTK-wt (vs negative control (DMSO), mean of two separate experiments, NA = not active at 10 µM, read-out: % Inhibition (10 µM) BTK-wt) is 98.2%; on BTK-wt (Table 2 selectivity profile, mean of two experiments, read-out: % Inhibition at 10 µM, BTK), 98.2%; against TXK (10 µM, mean of two experiments), 88.5%; against ERBB2 it was 59.2%. Half-maximal inhibition against BTK-wt (HotSpot assay, 10 μM ATP, GraphPad Prism) (IC50) required 800 nM. The “kinase selectivity (in words)” value on BTK-wt (over EGFR and TEC family kinases, JAK3) is “selective for BTK over ITK, EGFR, ERBB4, and JAK3”. Also, the “inhibitory activity against TXK (in words)” value on TXK was “strong inhibitory activity”. Moreover, the “production of IL-6” value in assay [1] (LPS-stimulated differentiated THP-1 cells, 24 h, ELISA) was “significantly and dose-dependently reduced”. Further, in assay [1] (compound at 10 μM, ibrutinib at 2 μM), the “inhibitory activity on IL-6 production at 10 μM, compared with ibrutinib” value is listed as “comparable with that of ibrutinib at 2 μM”.
